According to ChEMBL document CHEMBL5674860, “Optimized Dual-Glo Assay to identify co-culture-induced drug vulnerabilities in 3D CRC models” (2024):

Assays:
Format in all cases: functional, Homo sapiens
Set-up in all cases: dose or concentration left out as unconfirmed
Colon cancer organoid [1] = test: Optimized Dual-Glo assay to identify co-culture induced drug vulnerabilities using donated chemical probes and chemogenomics kinase set in O14 CRC organoid and F14 CAF mono and co-culture. […] Cell viability is reported both mono and co-culture models.
Colon cancer organoid [2] = test: Optimized Dual-Glo assay to identify co-culture induced drug vulnerabilities using donated chemical probes and chemogenomics kinase set in O20 CRC organoid and F20 CAF mono and co-culture. […] Cell viability is reported both mono and co-culture models.
Colon cancer organoid [3] = test: Optimized Dual-Glo assay to identify co-culture induced drug vulnerabilities using donated chemical probes and chemogenomics kinase set in O06 CRC organoid and F06 CAF mono and co-culture. […] Cell viability is reported both mono and co-culture models.
[4] = Culture type Co-Culture, Transduced with Lucferase2-P2A-EGFP lentivirus
[5] = Culture type Co-Culture, Transduced with Renilla-dsRed lentivirus
[6] = Culture type Mono-Culture, Transduced with Lucferase2-P2A-EGFP lentivirus
[7] = Culture type Mono-Culture, Transduced with Renilla-dsRed lentivirus

| SMILES | Cell Viability (Colon cancer organoid [1]; [4]) [%] | Cell Viability (Colon cancer organoid [1]; [5]) [%] | Cell Viability (Colon cancer organoid [1]; [6]) [%] | Cell Viability (Colon cancer organoid [1]; [7]) [%] | Cell Viability (Colon cancer organoid [2]; [4]) [%] | Cell Viability (Colon cancer organoid [2]; [5]) [%] | Cell Viability (Colon cancer organoid [2]; [6]) [%] | Cell Viability (Colon cancer organoid [2]; [7]) [%] | Cell Viability (Colon cancer organoid [3]; [4]) [%] | Cell Viability (Colon cancer organoid [3]; [5]) [%] | Cell Viability (Colon cancer organoid [3]; [6]) [%] | Cell Viability (Colon cancer organoid [3]; [7]) [%] |
| --- | --- | --- | --- | --- | --- | --- | --- | --- | --- | --- | --- | --- |
| COc1cc(-c2cn([C@H]3CCc4c(F)cccc4N(CC(F)(F)F)C3=O)nn2)ccc1-n1cnc(C)c1 | 75.4426 | 112.422 | 84.8132 | 97.4006 | 119.382 | 109.286 | 102.589 | 90.6954 | 117.399 | 118.336 | 87.9333 | 111.054 |
| COc1ncc(F)cc1CNc1ccc(Cc2c[nH]c3ncc(C)cc23)c(F)n1 [PLX-5622] | 95.8839 | 46.3569 | 130.226 | 44.2586 | 205.726 | 55.6932 | 133.198 | 66.7491 | 82.7626 | 63.3822 | 93.414 | 61.0678 |
| CNc1nc(-c2ccc3c(N)n[nH]c3c2)cc(N2C[C@@H](C(=O)NC3CCCCC3)CC[C@H]2C)n1 | 75.802 | 81.9858 | 103.482 | 52.6977 | 51.6899 | 121.574 | 29.0897 | 81.2947 | 59.8926 | 53.4401 | 68.2825 | 54.6916 |
| Cn1cncc1[C@@](O)(COc1ccc(C#N)cc1-c1ccc(OC(F)(F)F)cc1)c1ccc(C#N)cc1 [A-108] | 57.9117 | 92.8032 | 90.1674 | 97.2035 | 89.1467 | 110.638 | 65.4211 | 112.38 | 113.578 | 151.877 | 88.7228 | 108.002 |
| C[C@@H](NC(=O)Nc1cc2[nH]ncc2c(CO)n1)c1ccccc1 [ERKi] | 33.887 | 108.528 | 11.5857 | 66.9878 | 50.0756 | 135.339 | 64.2382 | 68.0141 | 117.766 | 104.277 | 23.2555 | 96.7542 |
| CC1=C(C)C(=O)C(C(C)(C)CC(=O)N(CCCCSC[C@H]2O[C@@H](n3cnc4c(N)ncnc43)[C@@H]3OC(C)(C)O[C@@H]32)Cc2cccc(-c3ccc(Cl)cc3)c2)=C(C)C1=O | 111.496 | 127.734 | 88.6013 | 108.216 | 97.2624 | 117.278 | 134.873 | 88.9157 | 82.0361 | 129.013 | 89.6281 | 110.922 |
| Cc1nc(C2CCN(C(=O)c3ccc(OC(F)(F)F)cc3N)CC2)c2ncc(N3CCN(C)CC3)cc2n1 [BAY-693] | 86.7565 | 92.2226 | 129.525 | 92.5719 | 93.857 | 129.276 | 111.777 | 88.9169 | 114.208 | 166.908 | 75.386 | 110.093 |
| CC(=O)c1c(NS(C)(=O)=O)c2cc(-c3ccc(Cl)cc3)c(-c3ccc(Cl)cc3Cl)nc2n(C)c1=O [MRL-CB1-NC] | 103.447 | 111.697 | 108.811 | 108.592 | 159.821 | 122.581 | 102.28 | 97.0964 | 125.408 | 125.307 | 109.863 | 112.651 |
| CC[C@H](CC(=O)O)n1c(=O)c2ncccc2n(Cc2cn(C)c3cc(C)cc(C)c23)c1=O [BI-1942] | 138.147 | 85.0736 | 117.29 | 91.8874 | 107.514 | 100.799 | 88.7956 | 92.5825 | 119.907 | 136.619 | 121.189 | 103.918 |
| Cc1c(NC(=O)COc2ccc(Cl)cc2C(=O)c2cc(F)cc(C(F)(F)F)c2)ccc(C(=O)O)c1F [BI 2540] | 79.1363 | 91.7704 | 120.435 | 101.06 | 66.158 | 145.555 | 86.1051 | 111.497 | 131.143 | 97.0984 | 110.069 | 102.946 |
| N#Cc1cnc(Nc2cc(NC[C@H]3CNCCO3)c(C(F)(F)F)cn2)cn1 [SRA-737] | 41.9223 | 191.286 | 52.6101 | 101.86 | 103.278 | 133.202 | 58.7772 | 96.135 | 89.9461 | 120.027 | 70.513 | 117.124 |
| CN1CCN(C(=O)C(C)(C)c2ccc(C(=O)Nc3cn4cc(-c5cc(C(C)(C)C)cc(C(C)(C)C)c5)ccc4n3)cc2)CC1 [T3-CLK-N] | 129.357 | 95.6255 | 93.4655 | 83.9103 | 83.0148 | 112.725 | 124.688 | 67.9916 | 119.67 | 85.6501 | 109.915 | 85.7063 |
| CN(C)C(=O)c1ccc(-c2cc(C(=O)N(C)C3CCCC3)no2)cc1O | 78.738 | 108.435 | 99.3256 | 115.997 | 121.535 | 110.433 | 107.717 | 123.756 | 126.057 | 129.278 | 114.98 | 129.58 |
| CN(C)C(=O)N1CC[C@H](NC2=Nc3cc(F)ccc3N(CC(F)F)c3ccc(Cl)cc32)C1 | 130.518 | 98.5664 | 108.387 | 90.4728 | 71.357 | 98.2431 | 112.934 | 109.328 | 158.864 | 159.783 | 102.875 | 125.077 |
| CN1CCN(Cc2cc(NC(=O)c3ccc4c(c3)CN(c3ccccc3)CC4)cc(C(F)(F)F)c2)CC1 | 99.7753 | 107.038 | 129.235 | 97.9505 | 90.0307 | 84.0381 | 92.4079 | 96.3902 | 103.855 | 89.7391 | 108.49 | 105.467 |
| COc1ccccc1-c1cc(N2CCN(C(=O)OC(C)(C)C)CC2)c(N)nn1 | 99.785 | 110.211 | 110.079 | 98.4172 | 122.85 | 160.936 | 122.916 | 117.085 | 99.4085 | 102.712 | 83.0998 | 116.6 |
| CC#CC(=O)N1CCC[C@H]1c1nc(-c2ccc(C(=O)Nc3ccccn3)cc2)c2c(N)nccn12 [ACALABRUTINIB] | 70.2708 | 100.717 | 59.6403 | 100.701 | 96.1769 | 99.9657 | 56.8336 | 71.1135 | 96.562 | 83.4698 | 98.0139 | 99.6421 |
| CC(=O)Nc1nc(CN2CCC[C@H](Cc3cc(C)nc(C)c3)C2)cs1 [JNJ-73924149] | 81.3438 | 100.385 | 108.387 | 92.0646 | 90.3874 | 105.251 | 100.726 | 118.221 | 110.779 | 72.9092 | 164.947 | 124.842 |
